Laboratory results from patent US11478451B1, “Macrocyclic chlorine substituted indole derivatives” (Bayer Aktiengesellschaft, priority 2017, dated 2022).
Structures can show the parent of a compound that is named as a salt. Where two headings read alike, the source gives them in different places.

Tests used:
AMO-1 cells = test: Antiproliferation assay (CellTiter-Glo, 72 h), AMO-1; assay type: cell-based; conditions: IC50, median, AMO-1, 72 h, read-out: Antiproli AMO-1 [M] median
Procedure, shortened: (§1)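 Luminescent ATP-based viability (CellTiter-Glo) measured after 72 h of compound treatment at 37 °C. A day 0 plate recorded at time zero served as the starting reference for proliferation.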

SUDHL5 cells [1] = test: Antiproliferation assay (CellTiter-Glo, 72 h), SUDHL5; assay type: cell-based; conditions: IC50, median, SUDHL5, 72 h, read-out: Antiproli SUDHL5 [M] (median)
Procedure, shortened: as §1

SUDHL5 cells [2] = test: Induction of cytotoxicity (CellTiter-Glo, 5 h), SUDHL5; conditions: SUDHL5, 5 h
Experimental: (§3) Therefore, cytotoxicity assays were run in parallel in SUDHL5 and SUDHL10 cells.
(§4) The different cell lines were plated in culture medium (RPMI 1640 [GIBCO #22400-089] supplemented with 10% Fetal Bovine Serum) at a density of 3,300 cells in 30 μL/well in a sterile, solid black, flat bottom, polystyrene, TC-treated 384-well microplate (Corning #3571) using Multidrop Combi Reagent Dispenser. As a control, medium without cells was also added to the plate. Cells were incubated in a humidified incubator at 37° C. overnight. […] Rim wells were excluded. The cells were incubated for 5 h hours in a humidified incubator at 37° C. After this incubation, 30 μL of CellTiter-Glo® Luminescent Cell Viability reagent (Promega, G7573) was added to each well using the Multidrop Combi Reagent Dispenser, followed by 15 min incubation on a shaker at room temperature. Finally, luminescence was read at 0.1 ms, with a gain of 3000 using the PHERAstar FS microplate reader (BMG Labtech).

SUDHL5 cells [3] = test: Induction of caspase-3/7 activity (Caspase-Glo 3/7), SUDHL5; assay type: cell-based; conditions: EC50, median, SUDHL5, 3 h treatment
Procedure, shortened: (§2)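 Steps: seed the diffuse large B-cell lymphoma cells, leaving rim wells unused; add compounds; incubate 3 h at 37 °C; add Caspase-Glo 3/7 reagent; read; subtract medium-only background.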

HMC-1-8 cells = test: Antiproliferation assay (CellTiter-Glo, 72 h), HMC-1-8; assay type: cell-based; conditions: IC50, median, HMC-1-8, 72 h, read-out: Antiproli HMC-1-8 [M] median
Procedure, shortened: as §1

SUDHL10 cells [4] = test: Induction of caspase-3/7 activity (Caspase-Glo 3/7), SUDHL10; assay type: cell-based; conditions: EC50, median, SUDHL10, 3 h treatment
Procedure, shortened: as §2

SUDHL10 cells [5] = test: Induction of cytotoxicity (CellTiter-Glo, 5 h), SUDHL10; conditions: SUDHL10, 5 h
Experimental: as §3, §4

[6] = read-out: Cytotox SUDHL5 [M] (median), IC50, median
[7] = read-out: Cytotox SUDHL10 [M] (median), IC50, median
[8] = Homo sapiens, SU-DHL-5, 5 h, read-out: Cytotox SUDHL5 [M] (median), IC50, median
[9] = Homo sapiens, SU-DHL10, 5 h, read-out: Cytotox SUDHL10 [M] (median), IC50, median

CCc1c2c(nn1C)CCCN(CC(F)F)CCn1c(C(=O)O)c(CCCOc3cccc4cc(F)ccc34)c3ccc(Cl)c-2c31 (racemic) [Example 118, (rac)-4-chloro-12-(2,2-difluoroethyl)-3-ethyl-7-{3-[(6-fluoro-1-naphthyl)oxy]propyl}-2-methyl-10,11,12,13,14,15-hexahydro-2H-pyrazolo[3′,4′:8,9][1,4]diazacycloundecino[10,11,1-hi]indole-8-carboxylic acid]
IC50 (AMO-1 cells; Homo sapiens, AMO1, 72 h): 5.1e-07 M | IC50 (SUDHL5 cells [1]): 5.5e-07 M | IC50 (SUDHL5 cells [2]; [6]): 5.5e-07 M | EC50 (SUDHL5 cells [3]): 330 nM | IC50 (HMC-1-8 cells): 2.5e-06 M | EC50 (SUDHL10 cells [4]): 510 nM | IC50 (SUDHL10 cells [5]; [7]): 6.4e-07 M

CCc1c2c(nn1C)CN(C)CC(F)(F)CCn1c(C(=O)O)c(CCCOc3cccc4cc(F)ccc34)c3ccc(Cl)c-2c31 (racemic) [Example 126, (rac)-4-Chloro-3-ethyl-12,12-difluoro-7-{3-[(6-fluoro-1-naphthyl)oxy]propyl}-2,14-dimethyl-10,11,12,13,14,15-hexahydro-2H-pyrazolo[3′,4′:8,9][1,6]diazacycloundecino[10,11,1-hi]indol-14-ium-8-carboxylate]
IC50 (AMO-1 cells; Homo sapiens, AMO1, 72 h): 3.7e-07 M | IC50 (SUDHL5 cells [1]; Homo sapiens, SU-DHL-5, 72 h): 8.8e-07 M | IC50 (SUDHL5 cells [2]; [8]): 5e-07 M | EC50 (SUDHL5 cells [3]; Homo sapiens, SU-DHL-5, 3 h): 420 nM | IC50 (HMC-1-8 cells; 72 h): 2.2e-06 M | EC50 (SUDHL10 cells [4]; Homo sapiens, SU-DHL10, 3 h): 720 nM | IC50 (SUDHL10 cells [5]; [9]): 8.7e-07 M

CCc1c2c(nn1C)COCC(F)(F)CCn1c(C(=O)O)c(CCCOc3cccc4cc(F)ccc34)c3ccc(Cl)c-2c31 (single isomer, unassigned) [Example 85, (−)-4-chloro-3-ethyl-12,12-difluoro-7-{3-[(6-fluoronaphthalen-1-yl)oxy]propyl}-2-methyl-2,10,11,12,13,15-hexahydropyrazolo[4′,3′:9,10][1,6]oxazacycloundecino[8,7,6-hi]indole-8-carboxylic acid]
IC50 (AMO-1 cells; listed as 085): 4.9e-07 M | IC50 (SUDHL5 cells [1]; listed as 085): 3.6e-07 M | IC50 (SUDHL5 cells [2]; read-out: Cytotox SUDHL5 [M] (median), IC50, median, listed as 085): 3e-07 M | EC50 (SUDHL5 cells [3]; listed as 085): 180 nM | IC50 (HMC-1-8 cells; 72 h): 3.3e-06 M | EC50 (SUDHL10 cells [4]; Homo sapiens, SU-DHL10, 3 h): 320 nM | IC50 (SUDHL10 cells [5]; [9]): 9.8e-07 M

CCc1c2c(nn1C)COCC1CC1Cn1c(C(=O)O)c(CCCOc3cccc4cc(F)ccc34)c3ccc(Cl)c-2c31 (single isomer, unassigned; (+)) [Example 107]
IC50 (AMO-1 cells): 5.5e-07 M | IC50 (SUDHL5 cells [1]): 7.2e-07 M | IC50 (SUDHL5 cells [2]; [6]): 4.6e-07 M | EC50 (SUDHL5 cells [3]): 390 nM | IC50 (HMC-1-8 cells; 72 h): 2.4e-06 M | EC50 (SUDHL10 cells [4]): 470 nM | IC50 (SUDHL10 cells [5]; [9]): 5.9e-07 M

Cc1c2c(nn1C)CN(CC(F)(F)F)CCCCn1c(C(=O)O)c(CCCOc3cccc4cc(F)ccc34)c3ccc(Cl)c-2c31 (racemic) [Example 58, (rac)-4-chloro-7-{3-[(6-fluoronaphthalen-1-yl)oxy]propyl}-2,3-dimethyl-14-(2,2,2-trifluoroethyl)-10,11,12,13,14,15-hexahydro-2H-pyrazolo[3′,4′:8,9][1,6]diazacycloundecino[10,11,1-hi]indole-8-carboxylic acid]
IC50 (AMO-1 cells; Homo sapiens, AMO1, 72 h): 1.7e-06 M | IC50 (SUDHL5 cells [1]; Homo sapiens, SU-DHL-5, 72 h): 6.2e-07 M | IC50 (SUDHL5 cells [2]; [8]): 8.4e-07 M | EC50 (SUDHL5 cells [3]; Homo sapiens, SU-DHL-5, 3 h): 510 nM | IC50 (HMC-1-8 cells; 72 h): 5.8e-06 M | EC50 (SUDHL10 cells [4]; Homo sapiens, SU-DHL10, 3 h): 1500 nM | IC50 (SUDHL10 cells [5]; [9]): 2e-06 M

Cc1c2c(nn1C)COCC(F)(F)CCn1c(C(=O)O)c(CCCOc3cccc4ccccc34)c3ccc(Cl)c-2c31 (racemic) [Example 55, (rac)-4-chloro-12,12-difluoro-2,3-dimethyl-7-{3-[(naphthalen-1-yl)oxy]propyl}-2,10,11,12,13,15-hexahydropyrazolo[4′,3′:9,10][1,6]oxazacycloundecino[8,7,6-hi]indole-8-carboxylic acid]
IC50 (AMO-1 cells): 1.4e-06 M | IC50 (SUDHL5 cells [1]): 4.3e-07 M | IC50 (SUDHL5 cells [2]; [6]): 6.7e-07 M | EC50 (SUDHL5 cells [3]): 600 nM | IC50 (HMC-1-8 cells; 72 h): 2.2e-06 M | EC50 (SUDHL10 cells [4]): 520 nM | IC50 (SUDHL10 cells [5]; [7]): 7.4e-07 M

CCc1c2c(nn1C)CN(C(=O)OCCOC)CCCCn1c(C(=O)O)c(CCCOc3cccc4cc(F)ccc34)c3ccc(Cl)c-2c31 [Example 134, (rac)-4-chloro-3-ethyl-7-{3-[(6-fluoronaphthalen-1-yl)oxy]propyl}-14-[(2-methoxyethoxy)carbonyl]-2-methyl-10,11,12,13,14,15-hexahydro-2H-pyrazolo[3′,4′:8,9][1,6]diazacycloundecino[10,11,1-hi]indole-8-carboxylic acid]
IC50 (AMO-1 cells; Homo sapiens, AMO1, 72 h): 3.4e-07 M | IC50 (SUDHL5 cells [1]; Homo sapiens, SU-DHL-5, 72 h): 2.3e-07 M | IC50 (SUDHL5 cells [2]; [8]): 1.8e-07 M | EC50 (SUDHL5 cells [3]; Homo sapiens, SU-DHL-5, 3 h): 130 nM | IC50 (HMC-1-8 cells; 72 h): 2.1e-06 M | EC50 (SUDHL10 cells [4]; Homo sapiens, SU-DHL10, 3 h): 240 nM | IC50 (SUDHL10 cells [5]; [9]): 3.4e-07 M

CCc1c2c(nn1C)CN(C)CCC(F)(F)Cn1c(C(=O)O)c(CCCOc3cccc4cc(F)ccc34)c3ccc(Cl)c-2c31 (racemic) [Example 129, (rac)-4-chloro-3-ethyl-11,11-difluoro-7-{3-[(6-fluoronaphthalen-1-yl)oxy]propyl}-2,14-dimethyl-10,11,12,13,14,15-hexahydro-2H-pyrazolo[3′,4′:8,9][1,6]diazacycloundecino[10,11,1-hi]indole-8-carboxylic acid]
IC50 (AMO-1 cells; Homo sapiens, AMO1, 72 h): 8.3e-07 M | IC50 (SUDHL5 cells [1]; Homo sapiens, SU-DHL-5, 72 h): 4.5e-07 M | IC50 (SUDHL5 cells [2]; [8]): 3.3e-07 M | EC50 (SUDHL5 cells [3]; Homo sapiens, SU-DHL-5, 3 h): 300 nM | IC50 (HMC-1-8 cells; 72 h): 5.2e-06 M | EC50 (SUDHL10 cells [4]; Homo sapiens, SU-DHL10, 3 h): 740 nM | IC50 (SUDHL10 cells [5]; [9]): 8.9e-07 M

Cc1c2c(nn1C)COCCC(F)(F)Cn1c(C(=O)O)c(CCCOc3cccc4ccccc34)c3ccc(Cl)c-2c31 [Example 95, 4-chloro-11,11-difluoro-2,3-dimethyl-7-{3-[(naphthalen-1-yl)oxy]propyl}-2,10,11,12,13,15-hexahydropyrazolo[4′,3′:9,10][1,6]oxazacycloundecino[8,7,6-hi]indole-8-carboxylic acid N-ethylethanamine salt]
IC50 (AMO-1 cells; Homo sapiens, AMO1, 72 h): 9.7e-07 M | IC50 (SUDHL5 cells [1]; Homo sapiens, SU-DHL-5, 72 h): 1e-06 M | IC50 (SUDHL5 cells [2]; read-out: Cytotox SUDHL5 [M] (median), IC50, median, listed as 095): 7.7e-07 M | EC50 (SUDHL5 cells [3]; listed as 095): 550 nM | IC50 (HMC-1-8 cells; listed as 095): 7.2e-06 M | EC50 (SUDHL10 cells [4]; listed as 095): 870 nM | IC50 (SUDHL10 cells [5]; read-out: Cytotox SUDHL10 [M] (median), IC50, median, listed as 095): 4.5e-07 M

CCc1c2c(nn1C)COCC1(CCn3c(C(=O)O)c(CCCOc4cccc5ccccc45)c4ccc(Cl)c-2c43)CC1 (single isomer, unassigned; enantiomer 2) [Example 74, (+)-4′-chloro-3′-ethyl-2′-methyl-7′-{3-[(naphthalen-1-yl)oxy]propyl}-2′,10′,11′,15′-tetrahydro-13′H-spiro[cyclopropane-1,12′-pyrazolo[4′,3′:9,10][1,6]oxazacycloundecino[8,7,6-hi]indole]-8′-carboxylic acid-N-ethylethanamine salt (Enantiomer 2)]
IC50 (AMO-1 cells; Homo sapiens, AMO1, 72 h): 1.3e-06 M | IC50 (SUDHL5 cells [1]; Homo sapiens, SU-DHL-5, 72 h): 7.6e-07 M | IC50 (SUDHL5 cells [2]; [8]): 4.1e-07 M | EC50 (SUDHL5 cells [3]; Homo sapiens, SU-DHL-5, 3 h): 140 nM | IC50 (HMC-1-8 cells; 72 h): 9.4e-06 M | EC50 (SUDHL10 cells [4]; Homo sapiens, SU-DHL10, 3 h): 570 nM | IC50 (SUDHL10 cells [5]; [9]): 4e-07 M

CCc1c2c(nn1C)CCCN(CC(F)F)CCn1c(C(=O)O)c(CCCOc3cccc4cc(F)ccc34)c3ccc(Cl)c-2c31 [Example 119, (+)-4-chloro-12-(2,2-difluoroethyl)-3-ethyl-7-{3-[(6-fluoronaphthalen-1-yl)oxy]propyl}-2-methyl-10,11,12,13,14,15-hexahydro-2H-pyrazolo[3′,4′:8,9][1,4]diazacycloundecino[10,11,1-hi]indole-8-carboxylic acid N-ethylethanamine salt]
IC50 (AMO-1 cells): 3.6e-07 M | IC50 (SUDHL5 cells [1]): 3.1e-07 M | IC50 (SUDHL5 cells [2]; [6]): 1.4e-07 M | EC50 (SUDHL5 cells [3]): 110 nM | IC50 (HMC-1-8 cells): 1.3e-06 M | EC50 (SUDHL10 cells [4]): 210 nM | IC50 (SUDHL10 cells [5]; [7]): 2.9e-07 M

Cc1c2c(nn1CCCN1CCN(C)CC1)COCCCCn1c(C(=O)O)c(CCCOc3cccc4ccccc34)c3ccc(Cl)c-2c31 (racemic) [Example 48, (rac)-4-chloro-3-methyl-2-[3-(4-methylpiperazin-1-yl)propyl]-7-{3-[(naphthalen-1-yl)oxy]propyl}-2,10,11,12,13,15-hexahydropyrazolo[4′,3′:9,10][1,6]oxazacycloundecino[8,7,6-hi]indole-8-carboxylic acid]
IC50 (AMO-1 cells; Homo sapiens, AMO1, 72 h): 1.8e-07 M | IC50 (SUDHL5 cells [1]; Homo sapiens, SU-DHL-5, 72 h): 2e-07 M | IC50 (SUDHL5 cells [2]; [8]): 1.8e-07 M | EC50 (SUDHL5 cells [3]; Homo sapiens, SU-DHL-5, 3 h): 160 nM | IC50 (HMC-1-8 cells; 72 h): 8.2e-07 M | EC50 (SUDHL10 cells [4]; Homo sapiens, SU-DHL10, 3 h): 400 nM | IC50 (SUDHL10 cells [5]; [9]): 3e-07 M
